ChEMBL document CHEMBL1201862, “PubChem BioAssay data set” (2004)
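Grown in 96-well plates, cells were treated for 48 hours with each compound at five concentrations. Insufficient inhibition: endpoint recorded as highest concentration tested. Abbreviation: GI50, concentration required for 50% inhibition of growth.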 Active and inactive are the calls of the source. Rule as the data show it: active = GI50 up to about 1.1 µM and inactive = higher.

Experiments:
Assay in all cases: NCI tumour cell line growth inhibition, 48 h
NCI-H23 = system: NCI-H23
CAKI-1 = system: CAKI-1
HOP-92 = system: HOP-92
SK-MEL-5 = system: SK-MEL-5
A498 = system: A498
Malme-3M = system: Malme-3M
HCT-116 = system: HCT-116
SF-268 = system: SF-268
UACC-62 = system: UACC-62
KM12 = system: KM12
RPMI-8226 = system: RPMI-8226
UACC-257 = system: UACC-257
SF-295 = system: SF-295
SNB-75 = system: SNB-75
A549 = system: A549
SN12C = system: SN12C
RXF 393 = system: RXF 393
HT-29 = system: HT-29
U-251 = system: U-251
SW-620 = system: SW-620

Measured: GI50

COc1ccc(N2C(=O)C3C=CC(n4[nH]c(=O)n(Cc5ccccc5)c4=O)CC3C2=O)cc1 (stereo not given)
inactive: NCI-H23 > 100 µM | CAKI-1 > 100 µM | HOP-92 > 100 µM | SK-MEL-5 > 100 µM | A498 86.7 µM | Malme-3M > 100 µM | HCT-116 > 100 µM | SF-268 > 100 µM | UACC-62 > 100 µM | KM12 > 100 µM | RPMI-8226 > 100 µM | UACC-257 > 100 µM | SF-295 > 100 µM | SNB-75 > 100 µM | A549 > 100 µM | SN12C > 100 µM | RXF 393 > 100 µM | HT-29 > 100 µM | U-251 > 100 µM | SW-620 > 100 µM

CN(C)CCSc1nccc(-c2ccc(-c3ccnc(SCCN(C)C)n3)s2)n1
inactive: NCI-H23 11.2 µM | CAKI-1 13.5 µM | HOP-92 10.9 µM | SK-MEL-5 15.9 µM | A498 15.1 µM | Malme-3M 11.9 µM | HCT-116 3.33 µM | SF-268 8.17 µM | UACC-62 15.3 µM | KM12 4.91 µM | RPMI-8226 2.69 µM | UACC-257 16.7 µM | SF-295 10.7 µM | SNB-75 14.4 µM | A549 12.4 µM | SN12C 6.75 µM | RXF 393 6.14 µM | HT-29 2.57 µM | U-251 12.9 µM | SW-620 3.18 µM

COc1nc(N)nc2nc[nH]c12
inactive: NCI-H23 > 500 µM | CAKI-1 162 µM | HOP-92 235 µM | SK-MEL-5 > 500 µM | A498 228 µM | Malme-3M 290 µM | HCT-116 463 µM | SF-268 435 µM | UACC-62 160 µM | KM12 > 500 µM | RPMI-8226 417 µM | UACC-257 486 µM | SF-295 > 500 µM | SNB-75 208 µM | A549 > 500 µM | SN12C 441 µM | RXF 393 313 µM | HT-29 495 µM | U-251 488 µM | SW-620 > 500 µM
